Experimental data taken from ChEMBL document CHEMBL6127068, “Discovery of novel nitrofuran PROTAC-like compounds as dual inhibitors and degraders targeting STING” (Eur J Med Chem, 2024).
Active and inactive are the calls of the source. The calls are words filed in the database; no cut-off is given here.

Experiments:
[1] = target: T1, Protein cereblon/Stimulator of interferon genes protein (Homo sapiens, UniProt Q96SW2+Q86WV6); assay: PROTAC activity at CRBN/STING in human THP-1 cells assessed as induction of STING degradation at 10 uM incubated for 24 hrs by western blot analysis; format: cell-based
T1 sequence (Q86WV6 whole entry, looked up): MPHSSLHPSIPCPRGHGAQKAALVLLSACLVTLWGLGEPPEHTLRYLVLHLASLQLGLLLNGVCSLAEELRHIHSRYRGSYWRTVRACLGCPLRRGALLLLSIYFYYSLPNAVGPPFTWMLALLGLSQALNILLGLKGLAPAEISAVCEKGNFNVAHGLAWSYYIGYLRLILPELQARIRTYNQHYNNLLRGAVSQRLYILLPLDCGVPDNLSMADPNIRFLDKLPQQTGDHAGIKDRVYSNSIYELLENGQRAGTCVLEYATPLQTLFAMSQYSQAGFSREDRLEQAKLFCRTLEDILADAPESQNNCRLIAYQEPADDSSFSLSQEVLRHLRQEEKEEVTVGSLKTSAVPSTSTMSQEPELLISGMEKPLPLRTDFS
T1 sequence (Q96SW2 whole entry, looked up): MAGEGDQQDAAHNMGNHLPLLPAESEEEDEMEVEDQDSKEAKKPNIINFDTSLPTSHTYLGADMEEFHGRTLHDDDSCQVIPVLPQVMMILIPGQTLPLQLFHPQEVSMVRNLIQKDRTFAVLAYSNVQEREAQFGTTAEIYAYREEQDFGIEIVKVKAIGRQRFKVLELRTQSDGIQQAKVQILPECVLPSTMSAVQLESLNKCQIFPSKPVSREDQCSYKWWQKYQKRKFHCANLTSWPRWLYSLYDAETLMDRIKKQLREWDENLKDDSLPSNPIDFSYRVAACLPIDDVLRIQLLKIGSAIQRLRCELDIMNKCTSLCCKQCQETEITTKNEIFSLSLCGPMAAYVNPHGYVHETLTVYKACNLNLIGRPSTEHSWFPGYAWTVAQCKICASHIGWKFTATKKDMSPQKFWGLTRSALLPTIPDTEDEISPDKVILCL

[2] = target: T1, Protein cereblon/Stimulator of interferon genes protein; assay: PROTAC activity at CRBN/STING in human THP-1 cells assessed as induction of STING degradation at 10 uM measured after 9 hrs by western blot analysis; format: cell-based
[3] = tested on: THP-1; assay: Effect on STING mRNA expression in human THP-1 cells at 10 uM incubated for 12 to 48 hrs by qRT-PCR analysis; format: functional, cell-based; conditions: time 12-48 hrs
[4] = target: T1, Protein cereblon/Stimulator of interferon genes protein; assay: PROTAC activity at CRBN/STING in human THP-1 cells assessed as induction of STING degradation at 3 uM pretreated with proteasome inhibitor, MG132 for 1 hr followed by incubation with compound for 24 hrs by western blot analysis; format: cell-based
[5] = target: T1, Protein cereblon/Stimulator of interferon genes protein; assay: PROTAC activity at CRBN/STING in human THP-1 cells assessed as induction of STING degradation at 3 uM pretreated with lysosome inhibitor, bafilomycin for 1 hr followed by incubation with compound for 24 hrs by western blot analysis; format: cell-based
[6] = target: T1, Protein cereblon/Stimulator of interferon genes protein; assay: PROTAC activity at CRBN/STING in human THP-1 cells assessed as induction of STING degradation at 10 uM incubated for 24 hrs followed by replacement with fresh medium without compound and measured after 24 hrs by western bot analysis; format: cell-based
[7] = target: T1, Protein cereblon/Stimulator of interferon genes protein; assay: PROTAC activity at CRBN/STING in human THP-1 cells assessed as inhibition of cGAMP-induced TBK1 phosphorylation incubated for 24 hrs followed by stimulation with cGAMP for 24 hrs by western blot analysis; format: cell-based; conditions: dose 0.3-20 µM, time 48.0 hrs
[8] = target: T1, Protein cereblon/Stimulator of interferon genes protein; assay: PROTAC activity at CRBN/STING in human THP-1 cells assessed as inhibition of cGAMP-induced ISG56 mRNA expression incubated for 1 hr followed by stimulation with cGAMP for 24 hrs by qRT-PCR analysis; format: cell-based; conditions: dose 5-20 µM, time 25.0 hrs
[9] = target: T2, Stimulator of interferon genes protein (Mus musculus) (UniProt Q3TBT3); assay: Inhibition of STING in mouse RAW264.7 cells assessed as reduction in SR717-induced TBK1 phosphorylation at 0.3 to 20 uM pretreated for 1 hr followed by stimulation with SR717 for 24 hrs by western blot analysis; format: cell-based; conditions: dose 0.3-20 µM, time 25.0 hrs
T2 sequence (whole entry): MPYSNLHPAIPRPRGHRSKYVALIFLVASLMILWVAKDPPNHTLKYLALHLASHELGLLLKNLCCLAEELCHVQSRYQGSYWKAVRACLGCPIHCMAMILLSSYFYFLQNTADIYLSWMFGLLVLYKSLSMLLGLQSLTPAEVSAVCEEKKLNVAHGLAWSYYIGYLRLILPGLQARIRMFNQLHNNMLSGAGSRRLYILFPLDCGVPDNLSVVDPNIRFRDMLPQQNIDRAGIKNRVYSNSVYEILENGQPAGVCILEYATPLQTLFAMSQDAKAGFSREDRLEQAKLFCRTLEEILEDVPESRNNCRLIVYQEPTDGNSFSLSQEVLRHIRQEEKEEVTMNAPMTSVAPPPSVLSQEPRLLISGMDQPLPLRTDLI

[10] = target: T2, Stimulator of interferon genes protein (Mus musculus); assay: Inhibition of STING in mouse RAW264.7 cells assessed as reduction in SR717-induced IRF3 phosphorylation at 0.3 to 20 uM pretreated for 1 hr followed by stimulation with SR717 for 24 hrs by western blot analysis; format: cell-based; conditions: dose 0.3-20 µM, time 25.0 hrs
[11] = target: T2, Stimulator of interferon genes protein (Mus musculus); assay: Inhibition of STING in mouse RAW264.7 cells assessed as reduction in DMXAA-induced CXCL10 mRNA expression at 5 to 20 uM pretreated for 1 hr followed by stimulation with DMXAA for 24 hrs by qRT-CPR analysis; format: cell-based; conditions: dose 5-20 µM, time 25.0 hrs
[12] = tested on: HUVEC; assay: Cytotoxicity against HUVEC assessed as effect on cell viability at <10 uM incubated for 48 hrs by MTT assay; format: toxicity, cell-based; conditions: human
[13] = tested on: HEK-293T; assay: Cytotoxicity against HEK293T cells assessed as effect on cell viability at <10 uM incubated for 48 hrs by MTT assay; format: toxicity, cell-based; conditions: human
[14] = tested on: Mus musculus; assay: Anti-inflammatory activity against cisplatin-induced acute kidney injury C57BL/6J mouse model assessed as animal survival rate at 25 to 50 mg/kg measured at 72 hrs post-cisplatin administration (reference value: 66.7%); format: functional; conditions: dose 25-50 mg/kg
[15] = Toxicity against cisplatin-induced acute kidney injury C57BL/6J mouse model assessed as decrease in body weight at 25 to 50 mg/kg; format: organism-based; conditions: in vivo, dose 25-50 mg/kg
[16] = tested on: Mus musculus; assay: Anti-inflammatory activity against cisplatin-induced acute kidney injury C57BL/6J mouse model assessed as decrease in plasma BUN level at 25 to 50 mg/kg; format: functional, organism-based; conditions: dose 25-50 mg/kg
[17] = tested on: Mus musculus; assay: Anti-inflammatory activity against C57BL/6J mouse assessed as inhibition of cisplatin-induced hepatic impairment by measuring restoration of gamma-GT activity at 25 to 50 mg/kg; format: functional, organism-based; conditions: dose 25-50 mg/kg
[18] = target: T3, Protein cereblon/Stimulator of interferon genes protein (Mus musculus) (UniProt Q3TBT3+Q8C7D2); assay: In vivo inhibition of STING signaling pathway in C57BL/6J mouse assessed as inhibition of cisplatin-induced IFN-beta mRNA expression in kidney at 25 to 50 mg/kg by qPCR analysis; format: functional, organism-based; conditions: dose 25-50 mg/kg
T3 sequence (Q8C7D2 whole entry, looked up, one chain of several): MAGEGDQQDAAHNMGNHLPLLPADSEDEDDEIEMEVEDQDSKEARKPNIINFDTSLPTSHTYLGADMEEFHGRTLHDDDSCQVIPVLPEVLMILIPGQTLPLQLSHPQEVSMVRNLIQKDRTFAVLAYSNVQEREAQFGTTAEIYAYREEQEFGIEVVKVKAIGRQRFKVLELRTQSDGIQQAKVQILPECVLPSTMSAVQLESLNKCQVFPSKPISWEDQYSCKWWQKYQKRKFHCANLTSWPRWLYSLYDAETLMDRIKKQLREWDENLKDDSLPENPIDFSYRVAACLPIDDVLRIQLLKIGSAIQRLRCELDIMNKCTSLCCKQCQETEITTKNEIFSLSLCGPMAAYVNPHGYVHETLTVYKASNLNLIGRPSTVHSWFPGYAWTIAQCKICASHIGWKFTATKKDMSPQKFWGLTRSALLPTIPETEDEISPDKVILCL

[19] = target: T3, Protein cereblon/Stimulator of interferon genes protein (Mus musculus); assay: In vivo inhibition of STING signaling pathway in C57BL/6J mouse assessed as inhibition of cisplatin-induced CXCL10 mRNA expression in kidney at 25 to 50 mg/kg by qPCR analysis; format: functional, organism-based; conditions: dose 25-50 mg/kg
[20] = target: T3, Protein cereblon/Stimulator of interferon genes protein (Mus musculus); assay: In vivo inhibition of STING signaling pathway in C57BL/6J mouse assessed as inhibition of cisplatin-induced IL-6 mRNA expression in kidney at 25 to 50 mg/kg by qPCR analysis; format: functional, organism-based; conditions: dose 25-50 mg/kg
[21] = target: T3, Protein cereblon/Stimulator of interferon genes protein (Mus musculus); assay: In vivo inhibition of STING signaling pathway in C57BL/6J mouse assessed as inhibition of cisplatin-induced ISG56 mRNA expression in kidney at 25 to 50 mg/kg by qPCR analysis; format: functional, organism-based; conditions: dose 25-50 mg/kg
[22] = Toxicity against cisplatin-induced acute kidney injury C57BL/6J mouse model assessed as effect on heart morphology at 25 to 50 mg/kg by Hematoxylin-Eosin staining based microscopic analysis; format: organism-based; conditions: in vivo, dose 25-50 mg/kg

Structure (SMILES): O=C1CCC(N2C(=O)c3cccc(OCc4cn(CCCCCC(=O)OCCc5ccc(NC(=O)c6ccc([N+](=O)[O-])o6)cc5)nn4)c3C2=O)C(=O)N1 (configuration not stated)
- Activity [1]: 82%
- Activity [2]: Active
- Activity [3]: inactive
- Activity [4]: Active
- Activity [5]: inactive
- Activity [6]: inactive
- Activity [7]: Dose-Dependent Effect
- Activity [8]: Dose-Dependent Effect
- inhibition [9]: Dose-Dependent Effect
- inhibition [10]: Dose-Dependent Effect
- inhibition [11]: Dose-Dependent Effect
- Activity [12]: Non-Toxic
- Activity [13]: Non-Toxic
- Survival [14]: 100%
- Activity [15]: Toxic
- Activity [16]: Active
- Activity [17]: Active
- inhibition [18]: Active
- inhibition [19]: Active
- inhibition [20]: Active
- inhibition [21]: Active
- Activity [22]: Non-Toxic
